Where two headings read alike, the source gives them in different places.
Columns and labels:
[1] = target: T1, IRAK4 (Homo sapiens, UniProt Q9NWZ3); test: RBC HotSpot Kinase Assay, IRAK4; assay type: biochemical; design: purchased Reaction Biology (RBC HotSpot); settings: isolated kinase enzyme, 33P-ATP, P81 filter-binding
T1 sequence (Q9NWZ3 1-460): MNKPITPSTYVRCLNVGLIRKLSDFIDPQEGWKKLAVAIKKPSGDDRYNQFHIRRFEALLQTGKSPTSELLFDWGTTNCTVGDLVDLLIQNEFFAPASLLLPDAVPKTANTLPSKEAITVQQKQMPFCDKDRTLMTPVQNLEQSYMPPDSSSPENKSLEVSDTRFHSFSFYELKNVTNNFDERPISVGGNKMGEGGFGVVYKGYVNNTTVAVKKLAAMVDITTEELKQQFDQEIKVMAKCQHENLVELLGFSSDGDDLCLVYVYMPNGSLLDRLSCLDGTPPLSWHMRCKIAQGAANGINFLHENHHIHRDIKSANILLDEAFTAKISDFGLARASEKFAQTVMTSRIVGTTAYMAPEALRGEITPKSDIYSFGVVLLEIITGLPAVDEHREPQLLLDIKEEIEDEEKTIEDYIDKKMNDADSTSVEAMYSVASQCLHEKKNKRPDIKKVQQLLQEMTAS
In short: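 Radiometric filter-binding activity assay with isolated recombinant kinase (construct may be truncated or catalytic domain only) in 20 mM Hepes pH 7.5, 10 mM MgCl2, 1 mM EGTA, 2 mM DTT, 1% DMSO. Compound preincubated 20 min with kinase/substrate; reaction started with 33P-ATP, run 2 h at room temperature.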

[2] = system: NF-κB-inducible SEAP reporter in THP-1-Blue NF-κB cells; test: NF-kB SEAP reporter assay in THP-1-Blue NF-κB cells; assay type: cell-based; settings: 24 hours
Procedure: THP-1-Blue NF-κB cells (InvivoGen) carrying a stable integrated NF-κB-inducible secreted embryonic alkaline phosphatase (SEAP) reporter construct were plated at a concentration of 1×10^5 cells per well. The cells were stimulated with Pam3CSK4 (1 ng/mL) or hIL1B (1 ng/mL). After 10-20 minutes, the cells were then treated with vehicle (DMSO) or serial dilutions of the test compounds (10 doses tested for each test compound, with a 1:10 dilution series starting at 1 μM or 3 μM) with a final volume of 200 μL for 24 hours at 37° C. After 24 hours, the cells were centrifuged and 20 μL supernatant was incubated with 180 μL QUANTI-Blue reagent at 37° C. for 30-60 minutes. The levels of NF-κB-induced was measured in a microplate reader at 620 nm.

[3] = target: T2, IRAK1 (Homo sapiens, UniProt P51617); test: RBC HotSpot Kinase Assay, IRAK1; assay type: biochemical; settings: isolated kinase enzyme, 33P-ATP, P81 filter-binding
T2 construct: purchased Reaction Biology (RBC HotSpot)
In short: (§1)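 Radiometric HotSpot assay of catalytic activity with isolated recombinant kinase, possibly truncated or kinase domain only. Buffer: 20 mM Hepes pH 7.5, 10 mM MgCl2, 1 mM EGTA, 0.01% Brij35, 0.02 mg/ml BSA, 0.1 mM Na3VO4, 2 mM DTT, 1% DMSO, with cofactors specific to each kinase.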

[4] = target: T3, FLT3 (Homo sapiens, UniProt P36888); test: RBC HotSpot Kinase Assay, FLT3; assay type: biochemical; design: purchased Reaction Biology (RBC HotSpot); settings: isolated kinase enzyme, 33P-ATP, P81 filter-binding
T3 sequence (P36888 27-993): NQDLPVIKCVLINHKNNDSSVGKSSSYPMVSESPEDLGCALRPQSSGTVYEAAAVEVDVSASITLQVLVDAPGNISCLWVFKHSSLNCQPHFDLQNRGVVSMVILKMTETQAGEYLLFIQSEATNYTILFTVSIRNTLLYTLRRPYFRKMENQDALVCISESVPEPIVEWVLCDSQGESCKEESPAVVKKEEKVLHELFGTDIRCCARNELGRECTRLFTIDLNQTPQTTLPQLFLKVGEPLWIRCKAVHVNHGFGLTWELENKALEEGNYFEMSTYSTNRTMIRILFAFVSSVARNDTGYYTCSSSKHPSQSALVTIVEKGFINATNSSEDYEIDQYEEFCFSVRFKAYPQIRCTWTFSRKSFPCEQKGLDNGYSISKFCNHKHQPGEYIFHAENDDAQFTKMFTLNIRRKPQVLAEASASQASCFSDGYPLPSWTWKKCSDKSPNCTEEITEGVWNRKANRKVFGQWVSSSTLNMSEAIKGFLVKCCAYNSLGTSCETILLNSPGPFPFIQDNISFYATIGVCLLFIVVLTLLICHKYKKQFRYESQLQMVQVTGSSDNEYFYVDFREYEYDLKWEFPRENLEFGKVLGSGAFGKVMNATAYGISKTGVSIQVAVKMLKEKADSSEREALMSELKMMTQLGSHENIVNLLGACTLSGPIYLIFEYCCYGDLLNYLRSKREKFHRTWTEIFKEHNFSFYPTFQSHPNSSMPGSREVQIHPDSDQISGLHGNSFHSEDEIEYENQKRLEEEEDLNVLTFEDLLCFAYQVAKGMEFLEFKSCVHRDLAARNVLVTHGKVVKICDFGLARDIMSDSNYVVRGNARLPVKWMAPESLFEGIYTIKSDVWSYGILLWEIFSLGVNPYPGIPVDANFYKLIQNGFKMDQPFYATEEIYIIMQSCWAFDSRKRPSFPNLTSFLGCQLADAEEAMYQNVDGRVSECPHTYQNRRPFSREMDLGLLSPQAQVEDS
In short: as §1

[5] = system: MOLM14 D835Y cells; test: MOLM14 D835Y cell viability assay (Cell Titer Glo); assay type: cell-based; settings: Homo sapiens, MOLM-14, 48 h, cell viability, Cell Titer Glo, 48 hours; read-out: MOLM14 D835Y IC50
In short: (§2)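 MOLM14 cells with FLT3 D835Y or F691L kinase-domain resistance mutations seeded at 1000 cells/well and exposed to compound for 48 h under standard incubator conditions. Viability read by CellTiter-Glo luminescence after 15 min at room temperature.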

[6] = system: MOLM14 F691L cells; test: MOLM14 F691L cell viability assay (Cell Titer Glo); assay type: cell-based; settings: Homo sapiens, MOLM-14; cell viability, Cell Titer Glo, 48 hours; read-out: MOLM14 F691L IC50
In short: as §2

T2 sequence (P51617 whole entry): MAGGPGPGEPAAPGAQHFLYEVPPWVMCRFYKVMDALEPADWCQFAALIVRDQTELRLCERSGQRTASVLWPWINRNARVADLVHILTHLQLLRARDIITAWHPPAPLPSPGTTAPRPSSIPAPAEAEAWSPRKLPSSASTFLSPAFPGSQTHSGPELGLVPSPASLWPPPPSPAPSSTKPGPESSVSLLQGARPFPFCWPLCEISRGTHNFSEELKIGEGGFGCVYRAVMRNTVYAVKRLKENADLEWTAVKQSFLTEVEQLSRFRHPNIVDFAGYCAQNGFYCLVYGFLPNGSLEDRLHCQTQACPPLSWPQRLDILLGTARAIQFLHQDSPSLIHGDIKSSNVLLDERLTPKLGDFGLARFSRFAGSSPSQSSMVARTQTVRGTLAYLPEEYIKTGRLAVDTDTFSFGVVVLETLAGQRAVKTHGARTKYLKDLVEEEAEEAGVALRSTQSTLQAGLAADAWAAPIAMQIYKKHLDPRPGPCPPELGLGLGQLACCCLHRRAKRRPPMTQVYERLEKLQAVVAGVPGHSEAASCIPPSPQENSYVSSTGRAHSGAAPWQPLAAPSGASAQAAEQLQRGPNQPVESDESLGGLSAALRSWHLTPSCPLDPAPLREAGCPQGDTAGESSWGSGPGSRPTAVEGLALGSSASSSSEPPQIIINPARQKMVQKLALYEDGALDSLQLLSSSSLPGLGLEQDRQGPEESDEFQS

## C[C@@](O)(c1ccc2ncc(-c3ccnc(N[C@H]4CNCC[C@@H]4F)n3)n2c1)C(F)(F)F (single isomer, unassigned) [Compound 27a]
[1]
  IC50: 0.7 nM
[2]; THP-1-Blue NF-κB cells stimulated with Pam3CSK4 (1 ng/mL), read-out: NF-κB Pam3SCK4 IC50
  IC50: 55 nM
[2]; THP-1-Blue NF-κB cells stimulated with hIL1B (1 ng/mL), read-out: NF-κB IL1B IC50
  IC50: 52 nM
[3]
  IC50: 4 nM
[4]
  IC50: < 0.5 nM
[5]
  IC50: 18 nM

## CC(C)(O)c1cn2c(-c3nc(N[C@@H]4CCCNC4)ncc3F)cnc2cn1 [Compound 99a, (R)-2-(3-(5-fluoro-2-(piperidin-3-ylamino)pyrimidin-4-yl)imidazo[1,2-a]pyrazin-6-yl)propan-2-ol]
[1]
  IC50: 11 nM
[6]
  IC50: 1420 nM
[3]
  IC50: 44 nM
[4]
  IC50: 3 nM
[5]
  IC50: 142 nM

## COc1cc2ncc(-c3nc(N[C@H]4CNC[C@@H]4F)ncc3Cl)n2nc1C1CC1 [Compound 101a, 5-chloro-4-(6-cyclopropyl-7-methoxyimidazo[1,2-b]pyridazin-3-yl)-N-((3S,4S)-4-fluoropyrrolidin-3-yl)pyrimidin-2-amine]
[1]
  IC50: 1 nM
[6]
  IC50: 711 nM
[3]
  IC50: 24 nM
[4]
  IC50: 0.8 nM
[5]
  IC50: 113 nM

## COc1cc2ncc(-c3nc(N[C@@H]4CCCNC4)ncc3Cl)n2nc1C1CC1 [Compound 102a, (R)-5-chloro-4-(6-cyclopropyl-7-methoxyimidazo[1,2-b]pyridazin-3-yl)-N-(piperidin-3-yl)pyrimidin-2-amine]
[1]
  IC50: 2 nM
[6]
  IC50: 71 nM
[3]
  IC50: 81 nM
[4]
  IC50: < 0.5 nM
[5]
  IC50: 23 nM

## COc1cc2ncc(-c3nc(N[C@H]4CNCC[C@@H]4F)ncc3Cl)n2nc1C1CC1 [Compound 103a, 5-chloro-4-(6-cyclopropyl-7-methoxyimidazo[1,2-b]pyridazin-3-yl)-N-((3S,4S)-4-fluoropiperidin-3-yl)pyrimidin-2-amine]
[1]
  IC50: 3 nM
[6]
  IC50: 201 nM
[3]
  IC50: 179 nM
[4]
  IC50: 0.7 nM
[5]
  IC50: 71 nM

## COc1cnc(N[C@@H]2CCCNC2)nc1-c1cnc2cc(OC)c(C3CC3)nn12 [Compound 105a, (R)-4-(6-cyclopropyl-7-methoxyimidazo[1,2-b]pyridazin-3-yl)-5-methoxy-N-(piperidin-3-yl)pyrimidin-2-amine]
[1]
  IC50: 259 nM
[6]
  IC50: 6340 nM
[3]
  IC50: > 10000 nM
[4]
  IC50: 33 nM
[5]
  IC50: 711 nM

## COc1cc2ncc(-c3nc(N[C@H]4CNC[C@@H]4F)ncc3F)n2nc1N1CCCC1=O [Compound 107a, 1-(3-(5-fluoro-2-(((3S,4S)-4-fluoropyrrolidin-3-yl)amino)pyrimidin-4-yl)-7-methoxyimidazo[1,2-b]pyridazin-6-yl)pyrrolidin-2-one]
[1]
  IC50: 20 nM
[6]
  IC50: 1130 nM
[3]
  IC50: 102 nM
[4]
  IC50: 0.6 nM
[5]
  IC50: 80 nM

## COc1cc2ncc(-c3nc(N[C@H]4CNCC[C@@H]4F)ncc3F)n2nc1N1CCCC1=O [Compound 108a, 1-(3-(5-fluoro-2-(((3S,4S)-4-fluoropiperidin-3-yl)amino)pyrimidin-4-yl)-7-methoxyimidazo[1,2-b]pyridazin-6-yl)pyrrolidin-2-one]
[1]
  IC50: 57 nM
[6]
  IC50: 798 nM
[3]
  IC50: 241 nM
[4]
  IC50: 2 nM
[5]
  IC50: 80 nM

## COc1cc2ncc(-c3ccnc(N[C@H]4CNCC[C@@H]4F)n3)n2nc1C1CCO1 (stereo partly drawn) [Compound 109a, N-((3S,4S)-4-fluoropiperidin-3-yl)-4-(7-methoxy-6-(oxetan-2-yl)imidazo[1,2-b]pyridazin-3-yl)pyrimidin-2-amine]
[1]
  IC50: 4 nM
[6]
  IC50: 318 nM
[3]
  IC50: 239 nM
[4]
  IC50: 1 nM
[5]
  IC50: 28 nM

## COc1cc2ncc(-c3nc(N[C@@H]4CCCNC4)ncc3F)n2nc1N1CCCS1(=O)=O [Compound 110a, (R)-2-(3-(5-fluoro-2-(piperidin-3-ylamino)pyrimidin-4-yl)-7-methoxyimidazo[1,2-b]pyridazin-6-yl)isothiazolidine 1,1-dioxide]
[1]
  IC50: 20 nM
[6]
  IC50: 113 nM
[3]
  IC50: 23 nM
[4]
  IC50: < 0.5 nM
[5]
  IC50: 18 nM

## Fc1cnc(N[C@H]2CNCC[C@@H]2F)nc1-c1cnc2cnc(C3COC3)cn12 [Compound 117a, 5-fluoro-N-((3S,4S)-4-fluoropiperidin-3-yl)-4-(6-(oxetan-3-yl)imidazo[1,2-a]pyrazin-3-yl)pyrimidin-2-amine]
[1]
  IC50: 45 nM
[6]
  IC50: 1590 nM
[3]
  IC50: 397 nM
[4]
  IC50: 3 nM
[5]
  IC50: 159 nM

## Fc1cnc(N[C@@H]2CCCNC2)nc1-c1cnc2cnc(C3COC3)cn12 [Compound 118a, (R)-5-fluoro-4-(6-(oxetan-3-yl)imidazo[1,2-a]pyrazin-3-yl)-N-(piperidin-3-yl)pyrimidin-2-amine]
[1]
  IC50: 155 nM
[6]
  IC50: 3180 nM
[3]
  IC50: 732 nM
[4]
  IC50: 7 nM
[5]
  IC50: 179 nM

## COc1cc2ncc(-c3nc(N[C@H]4CNC[C@@H]4F)ncc3F)n2nc1N1CCS(=O)(=O)CC1 [Compound 123a, 4-(3-(5-fluoro-2-(((3S,4S)-4-fluoropyrrolidin-3-yl)amino)pyrimidin-4-yl)-7-methoxyimidazo[1,2-b]pyridazin-6-yl)thiomorpholine 1,1-dioxide]
[1]
  IC50: 5 nM
[6]
  IC50: 1000 nM
[3]
  IC50: 43 nM
[4]
  IC50: < 0.5 nM
[5]
  IC50: 63 nM

## COc1cc2ncc(-c3nc(N[C@@H]4CCCNC4)ncc3F)n2nc1N1CCS(=O)(=O)CC1 [Compound 124a, (R)-4-(3-(5-fluoro-2-(piperidin-3-ylamino)pyrimidin-4-yl)-7-methoxyimidazo[1,2-b]pyridazin-6-yl)thiomorpholine 1,1-dioxide]
[1]
  IC50: 138 nM
[6]
  IC50: 1130 nM
[3]
  IC50: 123 nM
[4]
  IC50: 2 nM
[5]
  IC50: 90 nM

## COc1cc2ncc(-c3ccnc(N[C@H]4CNCC[C@@H]4F)n3)n2nc1[C@H]1C[C@@H](O)C1 [Compound 127a, (Cis)-3-(3-(2-(((3S,4S)-4-fluoropiperidin-3-yl)amino)pyrimidin-4-yl)-7-methoxyimidazo[1,2-b]pyridazin-6-yl)cyclobutan-1-ol]
[1]
  IC50: < 0.5 nM
[6]
  IC50: 113 nM
[3]
  IC50: 20 nM
[4]
  IC50: < 0.5 nM
[5]
  IC50: 8 nM
